Measured values: patent US20110160136A1, “POLYPHENOLS FOR THE TREATMENT OF CARTILAGE DISORDERS” (NESTEC S.A., priority 2008, published 2011)

The molecules below were run on Articular cartilage explants (assay: IL1β-induced glycosaminoglycan (GAG) release from 35S-labelled articular cartilage explants). Settings: polyphenolic compounds extracted e.g. from rosemary plants; qualitative statement.
Type: cell-based, cows
From the text: Articular cartilage explants are dissected out of the metacarpophalangeal joint of old cows (8-10 years). The skin is removed from the feet. The articulation is opened transversally. Intra articular ligaments are transected. Full thickness slices of cartilage are dissected out and put in a Petri dish containing DMEM supplemented with 20% FBS ([…]) and antibiotics (penicillin, streptomycin and gentamycin). Under the hood, disks of cartilage obtained by using a biopsy punch (6 mm in diameter) are distributed between the wells of a 96-wells plate containing 200 μl of medium (DMEM+20% FBS, 1% penicillin/streptomycin, 0.1% gentamycin) per well. Finally, plates are put into an incubator (37° C./5% CO2).
Five days after their harvest, the explants are divided into several different treatment conditions:
1—negative control: the wells contain only culture medium. 2—positive stimulatory control: Interleukin 1β(IL1β) is added to the media at the concentration of 50 ng per ml. This cytokine is used to stimulate the catabolism and to induce inflammation. 3—positive inhibitory control: d15-PGJ2 (a peroxisome proliferator activated receptor γ agonist) and hymenialdisine are co-added, to the medium, with IL1β, to counteract the catabolic effect of this cytokine (Sabatini M, et al. (2002) Osteoarthritis Cartilage 10(9): 673-679; Scher J U, et al. (2005) Clin Immunol 114(2): 100-109; Boyault S, et al. (2001) Febs Letters 501(1): 24-30) 4, 5, 6, 7, 8 (if present)—tested compounds: these conditions test the effects of three concentrations of a polyphenol in presence of IL1β.
The explants undergo these treatments for 72 hours in the incubator (37° C., 5% CO2). The following protocol is based on the disclosure of Campbell et al. (1984) Arch Biochem Biophys 234(1): 275-289 and Hascall V C, et al. (1983) ArchBiochem Biophys 224(1): 206-223 and was carried out 48 hours after the harvest of the explants,
Sulphur 35 (35S) was added to the medium to be incorporated into newly synthesized polysulfated glycosaminoglycans within the extracellular matrix of the explants. After 72 hours, several washes were performed to eliminate the non-incorporated radioactivity. The explants were then treated for 72 hours, after which the supernatants were collected and the amount of radioactivity released in the medium was measured with a beta counter, as a marker of glycosaminoglycan (GAG) catabolism. The radioactivity present in the explants was also measured and used to normalize the amount of radioactivity released in the media. The radioactivity was expressed in DPM ([…]) and the GAG release was assessed by the following formula:
GAG release=radioactivity in the supernatants/(radioactivity in the supernatants+radioactivity in the explants)
With `COc1c(O)cc2oc(-c3ccc(O)c(O)c3)cc(=O)c2c1O` [6-methoxy-luteolin] the anti-catabolic potential was “anti-catabolic potential”. With `COc1c(OC2OC(COC(=O)C=Cc3ccc(O)cc3)C(O)C(O)C2O)cc2oc(-c3ccc(O)c(O)c3)cc(=O)c2c1O` (stereo not shown) [6″-Coumaroylnepitrin] the anti-catabolic potential was “anti-catabolic potential”. `COc1cc(C=CC(=O)OCC2OC(Oc3cc4oc(-c5ccc(O)c(O)c5)cc(=O)c4c(O)c3OC)C(O)C(O)C2O)ccc1O` (stereo not shown) [6″-Feruloylnepitrin] was tested, and the anti-catabolic potential was “anti-catabolic potential”. With `CC(C)c1cc2c(c(O)c1O)C13CCCC(C)(C)C1C(OC3=O)C2O` (stereo not shown) [7-epirosmannol] the anti-catabolic potential was “anti-catabolic potential”. In the case of `CC(C)c1cc2c(c(O)c1O)[C@@]13CCCC(C)(C)[C@@H]1C[C@@H]2OC3=O` [carnosol], the anti-catabolic potential is reported as “anti-catabolic potential”. `COc1cc2oc(-c3ccc(O)cc3)cc(=O)c2c(O)c1OC` [cirsimaritin] was tested, and the anti-catabolic potential was “anti-catabolic potential”. `O=c1c(O)c(-c2ccc(O)cc2)oc2cc(O)cc(O)c12` [kaempferol] was tested, and the anti-catabolic potential was “anti-catabolic potential”. In the case of `O=c1cc(-c2ccc(O)c(O)c2)oc2cc(O)cc(O)c12` [luteolin], the anti-catabolic potential is reported as “anti-catabolic potential”. In the case of `CC(C)c1cc2c(c(O)c1O)[C@@]13CCCC(C)(C)[C@@H]1[C@H](OC3=O)[C@H]2O` [rosmanol], the anti-catabolic potential is reported as “anti-catabolic potential”. In the case of `O=C(/C=C/c1ccc(O)c(O)c1)O[C@H](Cc1ccc(O)c(O)c1)C(=O)O` [rosmarinic acid], the anti-catabolic potential is reported as “anti-catabolic potential”.
